Columns and labels:
5-HT transporter = molecular target: T1, 5-HT transporter (Homo sapiens, UniProt P31645); assay: SafetyScreen44 radioligand binding; conditions: read-out: % Inh (% inhibition of control specific binding)
T1 construct: purchased Eurofins Cerep (SafetyScreen44)
Method: (§1) The SafetyScreen44® assay was carried out by Eurofins (Poitiers, France) according to the service-provider’s protocol. CPL500036 (1 µM) was tested against a panel of […] potential off-targets proteins, including G protein-coupled receptors (GPCRs), transporters, ion channels, nuclear receptors kinases and other non-kinase enzymes, by use of a set of the binding assays.
(§2) Binding of CPL500036 was calculated as the percent binding inhibition of a radioactively labeled ligand specific for each target. Enzyme inhibition of CPL500036 was calculated as the percent inhibition of the activity of the control enzyme. “No interaction” was denoted if inhibition ≤ 25% of specific binding of the control. Determination of muscarinic acetylcholine receptor (M2) activity induced by CPL500036 (antagonism and agonism) was undertaken in human recombinant CHO cells by measurement of the intracellular cAMP level according to the service-provider’s protocol. IC50 (concentration causing a half-maximal inhibition of specific binding of the control) or EC50 (concentration causing a half-maximal response of specific binding of the control) and the Hill coefficient were determined by non-linear regression analysis of the competition curves generated with mean replicate values using Hill-equation curve fitting with software developed at Cerep (Celle-Lévescault, France).

androgen receptor = molecular target: T2, androgen receptor (Homo sapiens, UniProt P10275, T878A); assay: SafetyScreen44 radioligand binding; conditions: agonist radioligand, read-out: % Inh (% inhibition of control specific binding)
T2 construct: purchased Eurofins Cerep (SafetyScreen44)
T2 sequence (P10275 whole entry T878A): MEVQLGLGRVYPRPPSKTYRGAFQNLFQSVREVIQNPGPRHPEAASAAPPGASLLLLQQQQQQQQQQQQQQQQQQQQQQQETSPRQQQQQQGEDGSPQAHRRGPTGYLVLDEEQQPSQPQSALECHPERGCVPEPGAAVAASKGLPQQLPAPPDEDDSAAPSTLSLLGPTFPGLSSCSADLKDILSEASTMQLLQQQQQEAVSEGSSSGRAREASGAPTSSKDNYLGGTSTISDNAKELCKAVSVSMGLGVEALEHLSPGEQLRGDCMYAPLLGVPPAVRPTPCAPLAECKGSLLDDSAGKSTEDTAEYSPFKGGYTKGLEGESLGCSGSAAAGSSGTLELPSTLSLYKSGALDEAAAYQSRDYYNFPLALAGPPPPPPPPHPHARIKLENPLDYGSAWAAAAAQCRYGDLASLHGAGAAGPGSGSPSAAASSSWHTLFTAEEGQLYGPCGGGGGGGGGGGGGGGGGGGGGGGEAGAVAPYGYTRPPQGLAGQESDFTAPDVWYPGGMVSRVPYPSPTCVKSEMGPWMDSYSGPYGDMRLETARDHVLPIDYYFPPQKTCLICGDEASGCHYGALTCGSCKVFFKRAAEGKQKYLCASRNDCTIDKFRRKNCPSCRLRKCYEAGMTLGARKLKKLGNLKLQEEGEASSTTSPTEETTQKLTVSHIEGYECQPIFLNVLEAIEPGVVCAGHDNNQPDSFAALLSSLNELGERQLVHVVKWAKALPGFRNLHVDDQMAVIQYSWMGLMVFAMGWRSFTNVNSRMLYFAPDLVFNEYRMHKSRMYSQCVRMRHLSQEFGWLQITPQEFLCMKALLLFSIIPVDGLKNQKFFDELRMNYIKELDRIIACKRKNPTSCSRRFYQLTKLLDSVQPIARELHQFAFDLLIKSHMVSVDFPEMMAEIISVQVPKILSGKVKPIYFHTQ
Method: as §1, §2

serotonin receptor 1B = molecular target: T3, serotonin receptor 1B (Rattus norvegicus, UniProt P28564); assay: SafetyScreen44 radioligand binding; conditions: read-out: % Inh (% inhibition of control specific binding)
T3 construct: purchased Eurofins Cerep (SafetyScreen44)
T3 sequence (P28564 whole entry): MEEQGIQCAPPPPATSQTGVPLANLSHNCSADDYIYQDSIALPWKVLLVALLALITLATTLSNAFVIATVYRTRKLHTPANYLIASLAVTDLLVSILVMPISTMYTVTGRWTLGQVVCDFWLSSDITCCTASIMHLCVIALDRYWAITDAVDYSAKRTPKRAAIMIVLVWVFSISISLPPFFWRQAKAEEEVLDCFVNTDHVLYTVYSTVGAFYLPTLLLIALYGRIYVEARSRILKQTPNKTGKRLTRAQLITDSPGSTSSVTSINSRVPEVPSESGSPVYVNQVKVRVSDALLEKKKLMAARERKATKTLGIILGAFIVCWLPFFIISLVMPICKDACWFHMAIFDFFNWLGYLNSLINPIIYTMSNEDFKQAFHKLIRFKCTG
Method: as §1, §2

serotonin receptor 3 = molecular target: T4, serotonin receptor 3 (Homo sapiens, UniProt P46098); assay: SafetyScreen44 radioligand binding; conditions: read-out: % Inh (% inhibition of control specific binding)
T4 construct: purchased Eurofins Cerep (SafetyScreen44)
T4 sequence (P46098 24-478): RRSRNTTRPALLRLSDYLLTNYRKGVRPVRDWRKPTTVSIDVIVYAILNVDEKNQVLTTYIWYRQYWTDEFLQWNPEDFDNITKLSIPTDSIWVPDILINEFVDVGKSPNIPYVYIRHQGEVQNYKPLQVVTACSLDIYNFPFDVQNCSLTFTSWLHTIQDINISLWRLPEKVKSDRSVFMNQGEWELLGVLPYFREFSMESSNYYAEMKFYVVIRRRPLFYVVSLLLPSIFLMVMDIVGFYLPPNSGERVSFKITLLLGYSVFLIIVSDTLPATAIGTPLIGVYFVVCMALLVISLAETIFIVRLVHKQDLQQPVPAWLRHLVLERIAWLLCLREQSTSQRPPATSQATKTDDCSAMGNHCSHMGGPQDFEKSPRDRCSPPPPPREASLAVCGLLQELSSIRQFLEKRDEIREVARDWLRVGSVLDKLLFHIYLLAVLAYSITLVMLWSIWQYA
Method: as §1, §2

[1] = test system: Salmonella typhimurium TA1537; assay: Ames test; conditions: CPL500036 5000µg/plate, n=3
[2] = Pharmacokinetics after oral gavage in rats (plasma and brain); assay type: in vivo, Wistar Han rats; conditions: for AUC(0-t): read-out: AUC(0–24h)
Method: (§3) The study was carried out in 40 male Wistar Han rats (∼10 weeks; Tri-City Academic Laboratory Animal Centre, Research and Services Centre, Medical University of Gdansk). Rats were fasted for 12 h (water was available at libitum) before administration and fed 4 h post-dose. Rats received CPL500036 (3 mg/kg per oral gavage). At each of eight time points (15 min, 30 min as well as 1 h, 2 h, 4 h, 7 h, 12 h, and 24 h), five rats were killed by exsanguination, and samples of blood and brain were harvested. Two male and two female Beagle dogs (10.5–13 months old, MediTox s.r.o., Konarovice, Czech Republic) received CPL500036 in a dose of 1.5 mg/kg per oral gavage. Blood was taken by venepuncture from v. cephalica antebrachii at twelve time points (0 min, 15 min, 30 min as well as 1 h, 2 h, 3 h, 4 h, 6 h, 8 h, 12 h, 24 h, and 48 h.
(§4) Blood was collected into tubes containing the anticoagulant K2EDTA and centrifuged (2,000 × g, 15 min, 4°C) to obtain plasma. Brain samples were homogenized in water. Plasma and brain homogenates were stored at −80°C until analyses. Acetonitrile (150 μl) spiked with internal standard (donepezil; MilliporeSigma) was added to 50 μl of each plasma homogenate or brain homogenate, respectively. The mixture was shaken vigorously for 2 min and then centrifuged (4,000 × g, 4 min, room temperature). Supernatants were injected into a high-performance liquid chromatography system (Infinity™ 1,260; Agilent Technologies, Santa Clara, CA, United States) with a Zorbax SB column ([…]; 1.8 μm; Agilent Technologies). The mobile phase was ammonium formate (20 mM, pH 3.0) and acetonitrile with 0.1% formic acid. The gradient chromatographic separation used a flow rate of 0.4 ml/min for 7.5 min at a nominal temperature of 30°C. Signal acquisition was undertaken for 5.5 min using of a triple quadrupole mass spectrometer (6,460 series; Agilent Technologies) with electrospray ionization (5500 V, 320°C). Multiple-reaction monitoring was applied to detect the following transitions of the m/z ratio: 342.0–220.9 and 342–235.9 for CPL500036; 380.5–362.9 and 380.5–243.5 for donepezil. The drug concentration was calculated from the ratio of the peak area response relative to the internal standard using a standard curve.

[3] = Pharmacokinetics after oral gavage in dogs (plasma); assay type: in vivo; conditions: both sexes, Beagle, dog plasma, 1.5 mg/kg oral gavage, mean ± SD, n = 4
Method: as §3, §4

Sprague–Dawley rats = assay: Catalepsy bar test; assay type: in vivo; conditions: p.o.
Method: Sprague–Dawley rats (∼300 g; Charles River Laboratories, Wilmington, MA, United States) (n = 8–12/group) were treated (p.o.) with vehicle or CPL500036 (0.15 mg/kg, 0.3 mg/kg, 0.6 mg/kg or 2 mg/kg). As a positive control causing catalepsy, haloperidol (1 mg/kg, i.p.) was employed. One hour following drug administration, catalepsy (prolonged maintenance of an externally imposed abnormal posture) was assessed using the bar test as described by Ionova and Severtsev ([Ionov and Severtsev, 2012]). Testing was accomplished by placing each rat in an upright position with his forepaws resting on a horizontal bar (0.9 cm in diameter) suspended in a wooden frame 7.5 cm above the cage floor. The rat was allowed to keep his forepaws on the bar for a measurement lasting for 30 s. The latency to remove both forepaws from the bar was measured with a hand-held stopwatch. The test was repeated for each rat every 30 min up to 240 min. Rats were returned to their home cages between tests. Each rat was tested twice, at an interval of 1 week.

[4] = Hepatocyte stability assay; assay type: in vitro ADME; conditions: data not shown, n = 6
psychosis animal models = test system: psychosis animal models; set-up: method as in manuscript in preparation; conditions: ref manuscript in preparation; cited from earlier work
human = conditions: ref Janowska et al., 2019, manuscript in preparation; cited from earlier work
[5] = With metabolic activation (+S9 mix), 2AA 2µg/plate
[6] = Without metabolic activation (-S9 mix), 9AA 50µg/plate
[7] = male, Wistar Han, rat brain, 3 mg/kg oral gavage, mean ± SD
[8] = male, Wistar Han, rat plasma, 3 mg/kg oral gavage, mean ± SD

T1 sequence (P31645 whole entry): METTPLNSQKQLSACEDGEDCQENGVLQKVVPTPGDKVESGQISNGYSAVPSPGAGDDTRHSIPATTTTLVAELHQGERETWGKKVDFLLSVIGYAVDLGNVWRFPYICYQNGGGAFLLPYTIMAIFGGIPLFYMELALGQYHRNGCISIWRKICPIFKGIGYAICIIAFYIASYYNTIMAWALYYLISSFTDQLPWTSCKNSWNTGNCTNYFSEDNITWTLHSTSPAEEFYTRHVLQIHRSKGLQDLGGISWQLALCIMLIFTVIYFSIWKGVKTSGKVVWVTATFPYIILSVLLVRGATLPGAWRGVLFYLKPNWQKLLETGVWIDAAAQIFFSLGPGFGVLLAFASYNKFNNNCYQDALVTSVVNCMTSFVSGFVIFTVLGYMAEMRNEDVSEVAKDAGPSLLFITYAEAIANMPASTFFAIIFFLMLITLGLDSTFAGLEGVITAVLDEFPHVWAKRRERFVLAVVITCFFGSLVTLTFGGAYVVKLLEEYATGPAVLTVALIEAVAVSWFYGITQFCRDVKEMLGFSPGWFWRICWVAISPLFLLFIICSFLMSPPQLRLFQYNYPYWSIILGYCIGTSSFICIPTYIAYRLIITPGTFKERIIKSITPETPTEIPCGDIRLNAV

Cc1ncc(C)n2nc(-c3ccn4cc(-c5ccccc5)nc4n3)nc12 [CPL500036, 7-[5,8-Dimethyl-(1,2,4)triazolo (1,5-a)pyrazin-2-yl]-2-phenylimidazo (1,2-a) pyrimidine]
inhibition at 1 µM (5-HT transporter): -9.5%
inhibition at 1 µM (androgen receptor): 5.3%
inhibition at 1 µM (serotonin receptor 1B): -7.3%
inhibition at 1 µM (serotonin receptor 3): -5.7%
Mutation rate [1, 5]: 0.69
Revertants Mean±SD [1, 5]: 6.0±5.20
Mutation rate [1, 6]: 0.71
Revertants Mean±SD [1, 6]: 4.0±4.36
bioavailability ([2]; Wistar rats, 3 mg/kg, p.o.): good bioavailability
Kp ([2]; male, Wistar Han, brain/plasma, rat, 3 mg/kg oral gavage, mean ± SD, read-out: B/P (brain to plasma ratio)): 0.49 ± 0.06
Cmax [2, 7]: 94.3 ± 28.5 ng/g
Tmax [2, 7]: 6.8 ± 3.3 h
AUC(0-t) [2, 7]: 844 ± 202 ng·h/mL
Cmax [2, 8]: 238 ± 98.1 ng/mL
Tmax [2, 8]: 5.8 ± 1.6 h
half-life [2, 8]: 6.4 ± 6.2 h
AUC(0-t) [2, 8]: 1620 ng·h/mL
Cmax [3]: 98.3 ± 55.4 ng/mL
Tmax [3]: 1.3 ± 0.5 h
half-life [3]: 2.1 ± 1.7 h
AUC(0-t) ([3]; read-out: AUC(0–24h)): 199 ± 106 ng·h/mL
catalepsy, bar test (Sprague–Dawley rats; 0.15 mg/kg, 60 min–240 min after administration): did not induce catalepsy
catalepsy, bar test (Sprague–Dawley rats; 0.3 mg/kg, appeared only at 210 min and 240 min): low cataleptogenic effect
catalepsy, bar test (Sprague–Dawley rats; 0.6 mg/kg, 60 min–240 min after administration): apparent 120 min–240 min following administration, but did not achieve the level elicited by haloperidol
catalepsy, bar test (Sprague–Dawley rats; 2 mg/kg, compared with haloperidol 1 mg/kg, i.p.): strong cataleptogenic effect comparable with that of haloperidol
minimum effective dose (MED) needed to elicit catalepsy (Sprague–Dawley rats; from AUC data of the duration of catalepsy): 0.6 mg/kg
active metabolites [4]: no active metabolites were identified
dose showing therapeutic activity (psychosis animal models): 0.1 mg/kg
bioavailability in human (human): bioavailable in human
safety and tolerability in human (human): generally safe and well tolerated with no serious adverse effects
